Experiment [1] relates to A549 cells. Description: A549 proliferation (viability) assay, Cell Titer Fluor, 72 hours. Conditions: Homo sapiens. It is filed as cell-based. The procedure, abridged:
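A549 cells seeded at 1000 cells/well, left 24 h, then exposed to compound for 72 h at 37 °C, 5% CO2, final DMSO 0.5% (v/v). Viability read by Cell Titer Fluor fluorescence; EC50 from four-parameter logistic fit.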

In experiment [2] the target is T1, GLS1 (purified recombinant human GAC) (Homo sapiens, UniProt O94925).
T1 sequence (O94925 55-598 isoform O94925-3 limits assumed): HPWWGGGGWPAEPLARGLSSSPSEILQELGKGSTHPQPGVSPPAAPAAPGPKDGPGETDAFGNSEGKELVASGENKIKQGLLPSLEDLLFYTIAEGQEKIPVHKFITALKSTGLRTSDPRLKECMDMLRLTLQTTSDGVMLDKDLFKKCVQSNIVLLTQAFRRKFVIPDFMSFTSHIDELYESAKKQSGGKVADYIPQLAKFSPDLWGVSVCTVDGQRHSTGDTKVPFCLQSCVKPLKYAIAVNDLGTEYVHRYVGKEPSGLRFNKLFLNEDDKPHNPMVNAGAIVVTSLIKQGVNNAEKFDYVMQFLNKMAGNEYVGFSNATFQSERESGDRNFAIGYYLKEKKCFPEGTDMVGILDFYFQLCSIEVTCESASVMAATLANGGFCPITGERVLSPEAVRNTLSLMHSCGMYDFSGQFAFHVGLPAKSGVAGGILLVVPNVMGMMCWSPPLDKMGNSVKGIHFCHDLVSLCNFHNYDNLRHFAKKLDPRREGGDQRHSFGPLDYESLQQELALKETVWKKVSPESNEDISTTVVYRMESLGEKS
Description: GLS1 enzymatic activity assay (dual-coupled, Amplex UltraRed/resorufin). The experiment is classed as biochemical. The gist of the method:
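In this coupled fluorometric format, phosphate-activated GAC (2 nM, 50 mM phosphate) is pre-exposed to compound for 10 min before 1 mM glutamine addition. Product is tracked as resorufin (530/590 nm) over time or at 20 min, and potency is derived by logistic fitting.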

In the case of `O=C(NCc1cncc(C(F)(F)F)c1)c1cn(CC(F)CCn2ccc(NC(=O)C3CCCC3)c(F)c2=O)nn1` (stereo not shown) [Example 364, 1-[4-(4-cyclopentaneamido-3-fluoro-2-oxo-1,2-dihydropyridin-1-yl)-2-fluorobutyl]-N-{[5-(trifluoromethyl)pyridin-3-yl]methyl}-1H-1,2,3-triazole-4-carboxamide], the EC50 (usually the concentration that produces a half-maximal response) in experiment [1] was < 100 nM. The IC50 (as a rule, the concentration that inhibits the measured activity by half) in experiment [2] was < 100 nM.
Turning to `CO[C@H](C(=O)Nc1ccn(CCC(F)Cn2cc(C(=O)NCc3cccc(OC(F)(F)F)c3)nn2)c(=O)c1F)c1ccccc1` (stereo partly drawn) [Example 285, 1-(2-fluoro-4-{3-fluoro-4-[(2S)-2-methoxy-2-phenylacetamido]-2-oxo-1,2-dihydropyridin-1-yl}butyl)-N-{[3-(trifluoromethoxy)phenyl]methyl}-1H-1,2,3-triazole-4-carboxamide], the EC50 in experiment [1] is < 100 nM. Moreover, the concentration for half-maximal inhibition (IC50) in experiment [2] was < 100 nM.
With `O=C(NCc1ccccn1)c1ccn(CCCCn2cc(C(=O)NCc3cccc(OC(F)(F)F)c3)nn2)c(=O)c1` [Example 49, 2-oxo-N-(pyridin-2-ylmethyl)-1-{4-[4-({[3-(trifluoro-methoxy)phenyl]methyl}carbamoyl)-1H-1,2,3-triazol-1-yl]butyl}-1,2-dihydropyridine-4-carboxamide], the EC50 in experiment [1] fell in the range of 500 to 5000 nM. Besides, in experiment [2], the 50% inhibitory concentration (IC50) was 100 to 500 nM.
Taken in the same sequence, the figures for `O=C(CC1CCCCC1)Nc1ccn(CCC(F)Cn2cc(C(=O)NCc3cccc(OC(F)(F)F)c3)nn2)c(=O)c1F` (stereo not shown) [Example 212, 1-{4-[4-(2-cyclohexylacetamido)-3-fluoro-2-oxo-1,2-dihydropyridin-1-yl]-2-fluorobutyl}-N-{[3-(trifluoromethoxy)phenyl]methyl}-1H-1,2,3-triazole-4-carboxamide] were < 100 nM and < 100 nM.
Taken in the same sequence, the figures for `Cc1ccc(CNC(=O)c2cn(CC(F)CCn3ccc(NC(=O)Cc4ccccc4)c(F)c3=O)nn2)cn1` (stereo not shown) [Example 307, 1-{2-fluoro-4-[3-fluoro-2-oxo-4-(2-phenylacetamido)-1,2-dihydropyridin-1-yl]butyl}-N-[(6-methylpyridin-3-yl)methyl]-1H-1,2,3-triazole-4-carboxamide] were 100 to 500 nM and < 100 nM.
The like results for `Cc1ccc(CNC(=O)c2nnc(CCCCn3ccc(NC(=O)OC4CCC4)c(F)c3=O)s2)cn1` [Example 468, Cyclobutyl(3-fluoro-1-(4-(5-(((6-methylpyridin-3-yl)methyl)carbamoyl)-1,3,4-thiadiazol-2-yl)butyl)-2-oxo-1,2-dihydropyridin-4-yl)carbamate] were, in that order, 100 to 500 nM and 100 to 500 nM.
Take `O=C(Cc1ccccc1)Nc1ccc(CCCCn2ccc(NC(=O)[C@@H](O)c3ccccc3)nc2=O)nn1` [Example 22, (S)-2-hydroxy-N-(2-oxo-1-(4-(6-(2-phenylacetamido)pyridazin-3-yl)butyl)-1,2-dihydropyrimidin-4-yl)-2-phenylacetamide]: the EC50 in experiment [1] was in the range of 500 to 5000 nM. For the same compound, in experiment [2], the half-maximal inhibitory concentration (IC50) is < 100 nM.
The like results for `O=C(CN1CCC(F)C1)Nc1ccn(CCC(F)Cn2cc(C(=O)NCc3cccc(OC(F)(F)F)c3)nn2)c(=O)c1` (stereo not shown) [Example 227, 1-(2-fluoro-4-{4-[2-(3-fluoropyrrolidin-1-yl)acetamido]-2-oxo-1,2-dihydropyridin-1-yl}butyl)-N-{[3-(trifluoromethoxy)phenyl]methyl}-1H-1,2,3-triazole-4-carboxamide] were, in that order, 100 to 500 nM and < 100 nM.
The like results for `O=C(Cc1cccnc1)Nc1ccn(CCC(F)Cn2cc(C(=O)NCc3cccc(OC(F)(F)F)c3)nn2)c(=O)c1` (stereo not shown) [Example 246, 1-(2-fluoro-4-{2-oxo-4-[2-(pyridin-3-yl)acetamido]-1,2-dihydropyridin-1-yl}butyl)-N-{[3-(trifluoromethoxy)phenyl]methyl}-1H-1,2,3-triazole-4-carboxamide] were, in that order, 500 to 5000 nM and < 100 nM.
Consider `O=C(Cc1ccccc1)Nc1ccn(CCC(F)Cn2cc(C(=O)NCc3cccc(OC(F)(F)F)c3)nn2)c(=O)c1F` (stereo not shown) [Example 180], for which, in experiment [1], the EC50 was < 100 nM. The IC50 in experiment [2] is < 100 nM.
Consider `CC(C)(C)OC(=O)N1CC(CC(=O)Nc2ccn(CCC(F)Cn3cc(C(=O)NCc4cccc(OC(F)(F)F)c4)nn3)c(=O)c2)C1` (stereo not shown) [Example 277, tert-butyl 3-{[(1-{3-fluoro-4-[4-({[3-(trifluoromethoxy)phenyl]methyl}carbamoyl)-1H-1,2,3-triazol-1-yl]butyl}-2-oxo-1,2-dihydropyridin-4-yl)carbamoyl]methyl}azetidine-1-carboxylate], for which, in experiment [1], the EC50 is 100 to 500 nM. Besides, the IC50 in experiment [2] is < 100 nM.
The like results for `O=C(Nc1ccn(CCCCc2nnc(C(=O)NCc3ccccc3)s2)c(=O)n1)OCc1ccccc1` [Example 122, benzyl N-(1-{4-[5-(benzylcarbamoyl)-1,3,4-thiadiazol-2-yl]butyl}-2-oxo-1,2-dihydropyrimidin-4-yl)carbamate] were, in that order, 100 to 500 nM and 100 to 500 nM.
Taken in the same sequence, the figures for `Cc1ccc(CNC(=O)c2cn(CC(F)CCn3ccc(NC(=O)C(=O)N4CCCC4)c(F)c3=O)nn2)cn1` (stereo not shown) [Example 411, 1-(2-fluoro-4-{3-fluoro-2-oxo-4-[2-oxo-2-(pyrrolidin-1-yl)acetamido]-1,2-dihydropyridin-1-yl}butyl)-N-[(6-methylpyridin-3-yl)methyl]-1H-1,2,3-triazole-4-carboxamide] were 500 to 5000 nM and 500 to 5000 nM.
Taken in the same sequence, the figures for `COCCNC(=O)c1nnc(CCCCn2ccc(NC(=O)Cc3cccc(OC(F)(F)F)c3)cc2=O)s1` [Example 450, N-(2-methoxyethyl)-5-[4-(2-oxo-4-{2-[3-(trifluoro-methoxy)phenyl]acetamido}-1,2-dihydropyridin-1-yl)butyl]-1,3,4-thiadiazole-2-carboxamide] were 500 to 5000 nM and 100 to 500 nM.
On to `Cc1ccc(CNC(=O)c2cn(CC(F)CCn3ccc(NC(=O)CC4CCCCC4)c(F)c3=O)nn2)cn1` (stereo not shown) [Example 266, 1-{4-[4-(2-cyclohexylacetamido)-3-fluoro-2-oxo-1,2-dihydropyridin-1-yl]-2-fluorobutyl}-N-[(6-methylpyridin-3-yl)methyl]-1H-1,2,3-triazole-4-carboxamide], for which the 50% effective concentration (EC50) in experiment [1] was < 100 nM. The IC50 in experiment [2] was < 100 nM.
Consider `CNC(=O)c1ccn(CCCCn2cc(C(=O)NCc3cccc(OC(F)(F)F)c3)nn2)c(=O)c1` [Example 58, N-methyl-2-oxo-1-{4-[4-({[3-(trifluoromethoxy)phenyl]methyl}carbamoyl)-1H-1,2,3-triazol-1-yl]butyl}-1,2-dihydropyridine-4-carboxamide], for which the EC50 in experiment [1] was > 5000 nM. For the same compound, the half-inhibitory concentration (IC50) in experiment [2] was 500 to 5000 nM.
Compound `CO[C@@H](C(=O)Nc1ccn(CC(F)CCn2cc(C(=O)NCc3cccc(OC(F)(F)F)c3)nn2)c(=O)c1F)c1ccccc1` (stereo partly drawn) [Example 310, 1-(3-fluoro-4-{3-fluoro-4-[(2R)-2-methoxy-2-phenylacetamido]-2-oxo-1,2-dihydropyridin-1-yl}butyl)-N-{[3-(trifluoromethoxy)phenyl]methyl}-1H-1,2,3-triazole-4-carboxamide] returned a 50% effective concentration (EC50) in experiment [1] of 500 to 5000 nM. Further, the IC50 in experiment [2] is 500 to 5000 nM.
